ChEMBL document CHEMBL5308504, “Tm Shift (DSF) assay results for EUbOPEN Chemogenomics Library” (2023)
“And” between values parts separate entries of the source, which are not always exact repeats. Identical values can stand only once.

Key:
[1] = molecular target: Fibroblast growth factor receptor 3 (Homo sapiens) (UniProt P22607); conditions: Compound concentration 20.0 uM, Protein concentration 2.0 uM, Result type QC Liability
Description: Thermal Shift Assay. Domain: start/stop: P449-E759

Peregrin (Homo sapiens) = molecular target: T1, Peregrin (Homo sapiens) (UniProt P55201); conditions: Compound concentration 20.0 uM, Protein concentration 2.0 uM, Result type QC Liability
T1 sequence (whole entry): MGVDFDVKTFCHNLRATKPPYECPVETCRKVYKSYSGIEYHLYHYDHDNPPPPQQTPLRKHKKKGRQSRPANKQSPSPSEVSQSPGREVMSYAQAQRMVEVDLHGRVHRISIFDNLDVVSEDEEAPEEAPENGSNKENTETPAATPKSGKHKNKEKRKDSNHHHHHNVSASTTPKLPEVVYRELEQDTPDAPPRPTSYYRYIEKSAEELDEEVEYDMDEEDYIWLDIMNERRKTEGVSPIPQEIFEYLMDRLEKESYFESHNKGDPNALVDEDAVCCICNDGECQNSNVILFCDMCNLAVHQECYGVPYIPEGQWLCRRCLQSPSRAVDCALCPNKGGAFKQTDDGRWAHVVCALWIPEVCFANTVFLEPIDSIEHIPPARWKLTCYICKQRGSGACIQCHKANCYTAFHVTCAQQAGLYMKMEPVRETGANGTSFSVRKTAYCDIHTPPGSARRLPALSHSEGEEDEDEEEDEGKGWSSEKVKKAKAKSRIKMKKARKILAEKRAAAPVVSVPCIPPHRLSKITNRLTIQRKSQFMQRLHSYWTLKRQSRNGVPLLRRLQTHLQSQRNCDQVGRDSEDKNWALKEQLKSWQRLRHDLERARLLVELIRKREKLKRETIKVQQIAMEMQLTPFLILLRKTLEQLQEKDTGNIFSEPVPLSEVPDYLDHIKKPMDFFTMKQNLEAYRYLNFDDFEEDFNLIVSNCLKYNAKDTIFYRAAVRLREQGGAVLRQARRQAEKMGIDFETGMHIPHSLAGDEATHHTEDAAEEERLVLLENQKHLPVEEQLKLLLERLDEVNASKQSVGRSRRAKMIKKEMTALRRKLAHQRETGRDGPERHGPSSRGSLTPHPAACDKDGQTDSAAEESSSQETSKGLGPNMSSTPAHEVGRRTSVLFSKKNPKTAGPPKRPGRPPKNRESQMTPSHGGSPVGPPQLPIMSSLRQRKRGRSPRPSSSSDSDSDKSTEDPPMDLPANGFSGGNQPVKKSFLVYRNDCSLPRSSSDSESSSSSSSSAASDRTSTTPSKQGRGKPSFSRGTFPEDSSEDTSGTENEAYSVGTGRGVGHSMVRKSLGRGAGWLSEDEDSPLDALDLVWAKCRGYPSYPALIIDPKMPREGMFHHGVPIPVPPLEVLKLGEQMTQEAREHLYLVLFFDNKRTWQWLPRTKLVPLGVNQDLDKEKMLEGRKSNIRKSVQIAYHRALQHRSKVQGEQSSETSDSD

Sequence of Fibroblast growth factor receptor 3 (Homo sapiens) (P22607 23-806 limits assumed): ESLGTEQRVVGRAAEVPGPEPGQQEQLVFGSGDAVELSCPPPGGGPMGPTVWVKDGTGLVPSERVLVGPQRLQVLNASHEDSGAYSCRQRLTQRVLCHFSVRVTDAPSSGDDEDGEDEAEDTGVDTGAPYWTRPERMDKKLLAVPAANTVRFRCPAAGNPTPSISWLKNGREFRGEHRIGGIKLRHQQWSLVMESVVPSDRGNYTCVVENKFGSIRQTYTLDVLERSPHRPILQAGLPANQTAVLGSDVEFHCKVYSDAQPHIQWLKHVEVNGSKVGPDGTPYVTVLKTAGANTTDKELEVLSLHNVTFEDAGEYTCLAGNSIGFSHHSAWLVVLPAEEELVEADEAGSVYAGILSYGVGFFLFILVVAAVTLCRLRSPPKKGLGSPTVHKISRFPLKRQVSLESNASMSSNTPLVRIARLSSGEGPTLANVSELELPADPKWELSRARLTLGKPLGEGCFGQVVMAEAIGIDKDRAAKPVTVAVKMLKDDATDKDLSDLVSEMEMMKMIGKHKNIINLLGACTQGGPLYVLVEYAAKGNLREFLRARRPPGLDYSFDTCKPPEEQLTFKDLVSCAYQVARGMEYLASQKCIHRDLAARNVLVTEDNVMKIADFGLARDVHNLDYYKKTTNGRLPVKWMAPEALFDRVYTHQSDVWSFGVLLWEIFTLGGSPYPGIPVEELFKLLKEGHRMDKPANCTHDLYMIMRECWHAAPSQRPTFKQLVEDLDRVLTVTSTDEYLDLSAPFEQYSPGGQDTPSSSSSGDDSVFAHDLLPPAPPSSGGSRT

Compound	ΔTm [1]	ΔTm (Peregrin (Homo sapiens))
CCCS(=O)(=O)Nc1ccc(F)c(Nc2ncnc3cnc(-n4cnc(C)c4)nc23)c1F	1.06 °C	0.01 °C
COc1cccc(-c2c(C)c(Cc3c(F)cccc3C(F)(F)F)c3n(c2=O)[C@@H]([C@@H](N)c2ccccc2)CS3)c1F	-2.84 °C	-4.1 °C
CCOP(=O)(OCC)C(=Cc1cc(C(C)(C)C)c(O)c(C(C)(C)C)c1)P(=O)(OCC)OCC	0.83 °C	-1.65 °C
Cc1c(CN2CCC3(CC2)CN(c2ncnc4sc(CC(F)(F)F)cc24)C3)ccc2c1cc(C#N)n2CC(N)=O	0.67 °C	-1.41 °C
O=C(NC1CCNCC1)c1n[nH]cc1NC(=O)c1c(Cl)cccc1Cl	0.78 °C	-1.28 °C
N[C@@H](CC(=O)O)Cn1nnc(-c2ccc(Oc3ncc(Cl)cc3F)cc2)n1	0.43 °C	-3.09 °C
CNc1nc(-c2ccc3c(N)n[nH]c3c2)cc(N2C[C@@H](C(=O)NC3CCCCC3)CC[C@H]2C)n1	2.13 °C	-2.05 °C
CN(C)C(=O)Cn1cc(-c2nc(C3(c4ccc(-c5cnc(N)nc5)cc4)CC3)no2)cn1	0.55 °C	-2.76 °C
CC(C)(C)c1cnc(CSc2cnc(NC(=O)C3CCN(CC(=O)NCCOCCOCCOCCNc4cccc5c4C(=O)N(C4CCC(=O)NC4=O)C5=O)CC3)s2)o1 (stereo not given)	0.29 °C	-0.35 °C
COc1ccc(CSc2nnc(-c3ccc4ncsc4c3)o2)cc1C(F)(F)F	-7.8 °C	-1.83 °C
CCNc1ccc(-c2nn(-c3ccccc3C)c3c2C(C)Cc2nc(NC(=O)OC)sc2-3)cn1 (stereo not given)	0.96 °C	-1.43 °C
C[C@@H]1COCCN1c1cc(=O)n2c(n1)N(Cc1cncc(Cl)c1)[C@H](C(F)(F)F)CC2	0.57 °C	-3.92 °C
CN(C)CCC[C@@]1(c2ccc(F)cc2)OCc2cc(C#N)ccc21	0.45 °C	-3.08 °C
C[C@@H]1CN(CC(=O)N2CC(C)(C)c3nc(CO)c(Cc4ccc(F)cc4)cc32)[C@@H](CN2CCOC[C@H]2C)CN1	0.45 °C	-2.93 °C
Cc1nccc(COC(=O)N2C[C@@H]3[C@@H](CNC(=O)c4ccc5[nH]nnc5c4)[C@@H]3C2)n1	0.43 °C	-2.37 °C
Cc1csc(-c2nnc(Nc3ccc(Oc4ncccc4-c4ccnc(N)n4)cc3)c3ccccc23)c1	-1.73 °C	-5.77 °C
N[C@@H]1CCCC[C@H]1Oc1ccc2ncc(-c3cc4ccccc4o3)n2n1	0.36 °C	-2.67 °C
COc1cccc(CNc2ccc(S(=O)(=O)Nc3nc4ccccc4s3)cc2)c1O	1.44 °C	-0.69 °C
O[C@]1(C(F)(F)F)CCCC[C@H]1Nc1ccc(F)cc1	0.58 °C	0.24 °C
COc1cc(Nc2cnc(C#N)c(O[C@H](C)CN(C)C)n2)ncc1-c1cnn(C)c1	1.26 °C	-0.27 °C

Compound	ΔTm [1]	ΔTm (Peregrin (Homo sapiens))
CC(C)c1cnc(NC(=O)Cc2ccccc2)s1	0.87 °C	0.11 °C
CN(C)C(=O)Cn1cc(-c2ccc(-c3cncc4ccccc34)cc2)cn1	0.29 °C	-2.52 °C
c1ccc(C(OC2CCN(CCCc3nnn[nH]3)CC2)c2ccccc2)cc1	0.52 °C	-2.95 °C
O=C(O)CCCCN(CCc1ccccc1OCc1ccc(CCc2ccccc2)cc1)Cc1ccc(C(=O)O)cc1	0.8 °C	-2.23 °C
CCS(=O)(=O)c1cc2cc(C[C@@](O)(CC(C)(C)c3ccc(F)cc3C(N)=O)C(F)(F)F)[nH]c2cn1	0.69 °C and 0.88 °C	-2.1 °C and -0.15 °C
COc1cc2nc(C)nc(N[C@H](C)c3cc(N)cc(C(F)(F)F)c3)c2cc1O[C@H]1CCOC1	0.66 °C	-3.07 °C
COc1cc(-c2cc([C@H](O)C3CC3)n3ncnc(N)c23)ccc1CO	1.71 °C	-2.32 °C
Cn1ncc(NC(=O)c2nc(-c3c(F)cccc3F)sc2N)c1N1CC[C@@H](N)[C@H](F)CC1	0.81 °C	-0.66 °C
CN1CCN(C(=O)Cc2ccc(N/C(=C3\C(=O)Nc4cc(Cl)ccc43)c3ccccc3)cc2)CC1	5.68 °C	-2.46 °C
COc1cc(C(=O)NC2CCN(C)CC2)ccc1Nc1ncc2c(n1)N(C1CCCC1)CC(F)(F)C(=O)N2C	0.42 °C	1.14 °C
CC(C)C[C@H](NC(=O)[C@@H](O)[C@H](N)Cc1ccccc1)C(=O)O	0.78 °C	-2.93 °C
Nc1nccc(-c2c(-c3ccc(F)cc3)ncn2C2CCCCC2)n1	0.92 °C	-0.2 °C
Nc1ncc2c(n1)-c1c([nH]c3ccc(C4=CCOCC4)cc13)CCC2	1.34 °C	-2.26 °C
NCCCc1c(C(=O)O)[nH]c2ccc(C(=O)Nc3ccccc3)cc12	0.79 °C	-1.68 °C
NCC1CCC(CNc2nc(NCc3ccccc3OC(F)(F)F)ncc2[N+](=O)[O-])CC1 (stereo not given)	0.5 °C	0.06 °C
C=CC(=O)Nc1cc(-c2nn(C3CCC(N4CCN(C(C)=O)CC4)CC3)c3ncnc(N)c23)ccc1Oc1ccccc1 (stereo not given)	1.74 °C	-1.27 °C
COc1cc(C(=O)O)ncc1C#Cc1ccccc1NS(=O)(=O)c1cccc2c(N(C)C)ccnc12	0.5 °C	-0.45 °C
Cc1ccc(NC(=O)c2ccc(CN3CC[C@H](N(C)C)C3)c(C(F)(F)F)c2)cc1Nc1nccc(-c2cncnc2)n1	0.68 °C	-3.14 °C
CN[C@@H](C)C(=O)N[C@H](C(=O)N1CCC[C@H]1C(=O)Nc1sc(-c2ncco2)nc1-c1ccccc1)C1CCCCC1	0.43 °C	-1.67 °C

Other lines, results leading:

ΔTm [1]	ΔTm (Peregrin (Homo sapiens))	Compound
3.57 °C	-12.9 °C	C#Cc1cnc2[nH]cc(-c3cccc4c3CCN4C(=O)[C@@H]3CCCN3C#N)c2c1
0.51 °C	-0.58 °C	O=C1Nc2ccc(I)cc2/C1=C/c1cc(Br)c(O)c(Br)c1
2.18 °C	-2.53 °C	CN1CCCN(C(=O)c2cccc(-c3ccc(/C=C4/C(=O)Nc5ccc(Cl)cc54)o3)c2)CC1
-1.51 °C	-1.44 °C	C[S+]([O-])c1ccc(-c2nc(-c3cccc(I)c3)c(-c3ccncc3)[nH]2)cc1 (stereo not given)
0.59 °C	-1.6 °C	O=C(CCCN1CCC(O)(c2ccc(Cl)cc2)CC1)c1ccc(F)cc1
4.52 °C	-2.4 °C	CN(C(=O)c1ccccc1)c1ccc2c(c1)[nH]/c(=N\C(=O)c1ccc(Br)s1)n2CCC(N)=O
0.79 °C	0.27 °C	CC(C)C(=O)N1CCC(c2cn(C)c3ncc(NC(=O)c4cccc(C#N)c4)c(C(F)(F)F)c23)CC1
0.38 °C	1.52 °C	COc1ccc(S(=O)(=O)N2CCOCC2)cc1Nc1ccc2c(n1)N(C1CCN(C)CC1)[C@H](C)C(=O)N2C
0.03 °C	-1.75 °C	O=C(O)c1ccnc(N2CC(O)(c3ccc(OCc4c(-c5c(Cl)cccc5Cl)noc4C4CC4)cc3Cl)C2)c1
0.62 °C	-1.81 °C	CNc1[nH]c(Nc2ccc(C(=O)N3CCOCC3)cc2OC)nc2ncc(Cl)c1-2
0.56 °C	-1 °C	CCc1cc2c(cc1N1CCC(N3CCOCC3)CC1)C(C)(C)c1[nH]c3cc(C#N)ccc3c1C2=O
0.47 °C	-3.01 °C	C[C@H](NC(=O)c1cc(Cl)ccc1Oc1ccc(F)cc1)c1ccc(C(=O)O)cc1
-5.62 °C	-2.29 °C	N=C(N)NCCC[C@H](NC(=O)CC1(CC(=O)N2CCN(C3c4ccccc4NC(=O)c4ccccc43)CC2)CCCC1)C(=O)NCCn1c(=O)n(-c2ccccc2)n(-c2ccccc2)c1=O (stereo not given in full)
0.66 °C	-3.77 °C	O=C(Nc1ccc(OC(F)(F)Cl)cc1)c1cnc(N2CC[C@@H](O)C2)c(-c2cc[nH]n2)c1
0.61 °C	1.73 °C	COc1ccccc1S(=O)(=O)Nc1ccc2c(c1)CN(C)C(=O)N2
0.54 °C	-4.33 °C	Cc1c(NC(=O)c2ccc(C(C)(C)C)cc2)cccc1-c1cn(C)c(=O)c(Nc2ccc(C(=O)N3CCOCC3)cc2)n1
1.58 °C	-2.21 °C	O=C(NCCN1CCOCC1)c1ccc2nn(CCOc3ccc(Cl)cc3)cc2c1
1 °C	-1.73 °C	Cc1cc2c(-c3ccco3)cnc(N[C@H]3CCN(C)C[C@@H]3C(=O)NC3CCCCC3)c2[nH]c1=O
1.33 °C	-0.97 °C	CN1CCN(c2ccc(-n3cc(-c4ccncc4OCC4CCNCC4)cn3)cc2)CC1
0.48 °C	-1.73 °C	COc1cc(C(N)=O)nc(-c2cccc(C#C[C@]3(O)CCN(C)C3=O)c2)c1
0.35 °C	-2.12 °C	CC1CCN(C(=O)[C@H](CCn2cccc2C#N)NS(=O)(=O)c2cccc3[nH]ccc23)CC1
